Key:
female obese Zucker rats = assay: Experiment A: serum lipids, glucose, non-esterified fatty acids and weight gain in obese female Zucker rats after seven days; assay type: in vivo, rat; details: 86 mg/kg
Description: Dosing vehicle, Compound A (86 mg/kg of body weight) or troglitazone (120 mg/kg of body weight) was administered to eight week old female obese Zucker rats daily for seven days in the morning by oral gavage in 1.5% carboxymethylcellulose/0.2% Tween-20. Troglitazone was obtained commercially. Finely crushed tablets were suspended in vehicle for dosing. Orbital blood samples were obtained following a six-hour fast prior to the initial dose and also following the seventh dose.
Blood serum was assayed for total cholesterol and triglycerides (FIG. 5), lipoprotein cholesterol profiles (FIG. 6), VLDL plus LDL cholesterol combined (also referred to as apo B containing lipoprotein cholesterol or non-HDL cholesterol), HDL cholesterol, and the ratio of HDL cholesterol to that of VLDL plus LDL cholesterol (FIG. 7), serum glucose, and non-esterified fatty acids (FIG. 8), and percent weight gain (FIG. 9). […] In particular, Compound A caused a marked elevation in HDL cholesterol after one week of treatment. Using the serum total cholesterol values (FIG. 5A) and the lipoprotein cholesterol distribution (FIG. 6), the amount of cholesterol associated with non-HDL (i.e., VLDL plus LDL) and HDL were determined (FIG. 7). […] In contrast, troglitazone reduced non-HDL and HDL cholesterol by 67% and 4%, respectively.

[1] = system: LDL receptor deficient mice; assay: Lipoprotein cholesterol profile in LDL receptor-deficient mice; assay type: in vivo; details: 300 mg/kg/day, chow-fed female mice
Description: The effect of Compound A on LDL levels in a murine model of homozygous familial hypercholesterolemia (Ishibashi et al., 1993, J. Clin. Invest. 92:883-893; Ishibashi et al., 1994, J. Clin. Invest. 93:1885-1893) was studied. LDL receptor-deficient mice have elevated LDL cholesterol relative to wild type mice when fed a chow diet. When fed cholesterol-enriched diets, these mice develop atherosclerosis.

[2] = system: chow fed male Sprague-Dawley rats; assay: Serum lipids, apolipoproteins and weight gain in chow fed male Sprague-Dawley rats after seven days of treatment; assay type: in vivo, rat
Description: Illustrative compounds of the invention were administered daily at a dose of 100 mg/kg to chow fed male Sprague-Dawley rats for seven days in the morning by oral gavage in 1.5% carboxymethylcellulose/0.2% Tween-20 (dosing vehicle). Animals were weighed daily. Animals were allowed free access to rodent chow and water throughout the study. After the seventh dose, animals were sacrificed in the evening and blood serum was assayed for lipoprotein cholesterol profiles, serum triglycerides, total cholesterol VLDL, LDL, and HDL cholesterol, and the ratio of HDL cholesterol to that of VLDL plus LDL cholesterol, apolipoproteins A-I, C-II, C-III, and E by immunoelectrophoresis, and percent weight gain.
The five compounds were tested in two separate experiments. In each experiment, the experimental data were normalized against a control group of rats which received the dosing vehicle alone.

[3] = 100 mg/kg, 7 days, compared to control, FIG. 3
[4] = 100 mg/kg, 7 days, vs vehicle, FIG. 2
[5] = 100 mg/kg/day oral gavage, 7 days, normalized against vehicle control

CC(C)(CO)CCCCOCCCCC(C)(C)CO [Compound A, 6-(6-hydroxy-5,5-dimethylhexyloxy)-2,2-dimethyl-hexan-1-ol]
change of non-HDL cholesterol (VLDL plus LDL) (female obese Zucker rats; one week): +10.3% | increase of HDL cholesterol (female obese Zucker rats; one week): 3.9 fold | reduction of non-esterified fatty acids (female obese Zucker rats; one week): 52% | reduction of serum triglycerides (female obese Zucker rats; one week): 68% | serum glucose (female obese Zucker rats; one week): did not induce a hypoglycemic state | ratio of HDL/non-HDL cholesterol (female obese Zucker rats; one week treatment, pre-treatment 4.2): 14.9 | increase of the ratio of HDL/non-HDL cholesterol (female obese Zucker rats; one week, vs pre-treatment): 3.6 fold | increase of total serum cholesterol (female obese Zucker rats; one week, vs pre-treatment): 3.3 fold | increase in body weight (female obese Zucker rats; seven days, vehicle 6.6%): 5.4% | LDL cholesterol ([1]; after one week of treatment): rapid and significant reduction | HDL ([1]; seven daily treatments): HDL elevation in all treated mice | elevation of apolipoprotein A-I [2, 3]: 16% | elevation of apolipoprotein E [2, 3]: 46% | reduction of apolipoprotein C-II [2, 3]: 20% | reduction of apolipoprotein C-III [2, 3]: 16% | ratio of HDL to non-HDL cholesterol (VLDL plus LDL) ([2]; 100 mg/kg, 7 days, control 2.6±0.2): 6.2±1.0 | improvement in the ratio of HDL to non-HDL cholesterol ([2]; 100 mg/kg, 7 days, vs control): 2.44 fold | change in VLDL cholesterol ([2]; 100 mg/kg, 7 days, vs vehicle): no change | elevation in HDL cholesterol ([2]; 100 mg/kg, 7 days, vs vehicle): 49% | reduction in LDL cholesterol ([2]; 100 mg/kg, 7 days, vs vehicle): 41% | elevation of total serum cholesterol [2, 4]: 26% | reduction of serum triglycerides [2, 4]: 31% | percentage body weight gain ([2]; 100 mg/kg, after seven days, control 68.3±1.2%): 63.4±1.9% | HDL-Cholesterol (% change) [2, 5]: +21.1 % change | LDL-Cholesterol (% change) [2, 5]: −27.7 % change | Triglyceride (% change) [2, 5]: +7.6 % change
